Residues, ends and D or L forms follow the SMILES beside them.
Legend:
[1] = Example 17: linoleic acid peroxidation induced by ABAP; format: biochemical
Protocol: Linoleic acid peroxidation will be induced using the water-soluble initiator 2,2′-azobis(2-amidinopropane) (ABAP), and lipid peroxidation will be detected by the formation of conjugated dienes, monitored spectrophotometrically at 236 nm (E. Longoni, W. A. Pryor, P. Marchiafava, Biochem. Biophys. Res. Commun. 233, 778-780 (1997)).
5 mL of 0.5 M ABAP and varying concentrations of peptide conjugates; aromatic-cationic peptides (an equivalent molar dose of aromatic-cationic peptide based on the concentration of the aromatic-cationic peptide administered in the peptide conjugate treatment group); SPN10(s) (an equivalent molar dose of SPN10 based on the concentration of SPN10 administered in the peptide conjugate treatment group); or SPN10(s) in combination with aromatic-cationic peptides (e.g., an equivalent molar dose of SPN10 based on the concentration of SPN10 administered in the peptide conjugate treatment group and an equivalent molar dose of aromatic-cationic peptide based on the concentration of aromatic-cationic peptide administered in the peptide conjugate treatment group) will be incubated in 2.4 mL linoleic acid suspension until autoxidation rate becomes constant.

high-fat fed rats = experiment: Example 34: insulin resistance in rats fed a high-fat diet; format: in vivo, rat
Protocol: On the day of testing, food will be removed 10 hours prior to administration of a 2 g/kg glucose solution via oral gavage. Glucose levels will be determined on whole blood samples (Lifescan, Milpitas, CA, U.S.A.). Serum insulin levels will be determined using a rat/mouse ELISA kit (Linco Research, St. Charles, MO, U.S.A.). Fasting data will be used to determine homeostatic model assessment (HOMA)-calculated as fasting insulin (mU/mL)×fasting glucose (mM)/22.5.
To further assess insulin sensitivity, the phosphorylation state of the insulin signaling protein Akt in skeletal muscle will be measured 1) following a 10 hour fast, and 2) 1 hour after receiving an oral glucose load. It is anticipated that in response to glucose ingestion, Akt phosphorylation will increase in skeletal muscle of standard chow-fed controls but will remain essentially unchanged in high-fat fed rats, confirming the presence of insulin resistance at the level of insulin signaling.

CD1 mice = experiment: Example 52: ATP synthesis following a burn injury (^31P NMR, EPR); format: in vivo, mouse
Protocol: Material and Methods. Male 6-week-old CD1 mice weighing 20-25 g will be anesthetized by intraperitoneal (i.p.) injection of 40 mg/kg pentobarbital sodium. The left hind limb of all mice in all groups will be shaved. Burn subjects will be subjected to a nonlethal scald injury of 3-5% total body surface area (TBSA) by immersing the left hind limb in 90° C. water for 3 seconds.
NMR spectroscopy is described in detail in Padfield, et al., Proc. Natl. Acad. Sci., 102:5368-5373 (2005). Briefly, mice will be randomized into 1) burn+control vehicle, 2) burn+peptide conjugate, 3) non-burn+control vehicle, 4) non-burn+peptide conjugate, 5) burn+aromatic-cationic peptides, 6) non-burn+aromatic-cationic peptides, 7) burn+SPN10, 8) non-burn+SPN10, 9) burn+SPN10+aromatic-cationic peptides, and 10) non-burn+SPN10+aromatic-cationic peptides groups. […] T1 relaxation times of Pi and phosphocreatine (PCr) will be measured using an inversion recovery pulse sequence in the presence of γ-ATP saturation. […]

For `N=C(N)NCCC[C@H](NC(=O)[C@@H](N)Cc1c[nH]c2ccccc12)C(=O)N[C@@H](Cc1c[nH]c2ccccc12)C(=O)N[C@@H](CCCCN)C(N)=O` [SPN10, H-L-Trp-L-Arg-L-Trp-L-Lys-NH2] (H-WRWK-NH2), the “peroxidation of linoleic acid” value [1] was “dose-dependently inhibit the peroxidation of linoleic acid”, the “blood glucose and insulin responses to the oral glucose challenge” value (high-fat fed rats; 2 g/kg glucose, six weeks high-fat diet) was “normalize blood glucose and insulin responses” and the “Akt phosphorylation in skeletal muscle in response to glucose ingestion” value (high-fat fed rats; rat, in vivo) was “increase Akt phosphorylation”. For the same compound, the “development of insulin resistance (HOMA)” value (high-fat fed rats; rat, in vivo) was “suppress the development of insulin resistance”, the “ATP synthesis rate in burned mice” value (CD1 mice; compared to burn controls) was “significant increase in the ATP synthesis rate” and the “ATP synthesis rate in control healthy mice” value (CD1 mice; non-burn) was “increase ATP synthesis rate substantially”.

Reference: patent publication US20240108740A1, “THERAPEUTIC COMPOSITIONS INCLUDING SPN10 AND USES THEREOF” (Stealth BioTherapeutics Inc., priority 2022, published 2024)
